# Experimental data published in patent US20070066590A1, “Phenyl-and pyridylpiperidine-derivatives as modulators of glucose metabolism” (priority 2003, published 2007).
# Tests used:
# RUP3 = biological target: T1, RUP3 (Homo sapiens, UniProt Q8TDV5); assay: 96-Well Cyclic AMP Membrane Assay for RUP3 (Membrane Cyclase Assay); assay type: biochemical; details: RUP3 membranes, cAMP Flashplate
# T1 construct: expressed in transfected cells
# T1 sequence (Q8TDV5 with tags, fused parts or gaps): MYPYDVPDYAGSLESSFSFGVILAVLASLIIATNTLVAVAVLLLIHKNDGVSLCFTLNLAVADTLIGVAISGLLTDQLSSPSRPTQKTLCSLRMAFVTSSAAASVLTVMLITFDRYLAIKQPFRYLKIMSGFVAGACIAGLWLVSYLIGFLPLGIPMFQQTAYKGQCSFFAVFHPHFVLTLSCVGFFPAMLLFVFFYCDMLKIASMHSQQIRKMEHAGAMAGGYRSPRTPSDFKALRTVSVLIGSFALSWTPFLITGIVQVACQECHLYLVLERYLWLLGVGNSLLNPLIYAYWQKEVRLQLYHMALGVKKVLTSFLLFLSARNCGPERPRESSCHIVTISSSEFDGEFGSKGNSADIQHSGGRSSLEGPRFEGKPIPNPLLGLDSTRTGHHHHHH
# Description: 96-Well Cyclic AMP Membrane Assay for RUP3
# • 1) Adenlyl cyclase Activation Flashplate Assay kit from Perkin Elmer—96 wells (SMP004B) and ^125I tracer (NEX130) which comes with the kit. […] All buffers and membranes should be kept cold (in ice bucket) while performing assay. 20 mM Hepes, pH7.4 1 mM MgCl2 100 mM NaCl 2× Regeneration Buffer (make in binding buffer): 20 mM Phosphocreatine (1.02 gm/200 ml binding buffer) 20 units Creatine phosphokinase (4 mg/200 ml) 20 uM GTP (make up 10.46 mg/ml in binding buffer and add 200 ul/200 ml) 0.2 mM ATP (22.04 mg/200 ml) […] (44.4 mg IBMX dissolved in 1 ml 100% DMSO first and then add the entire amount to 200 ml of buffer). Regeneration buffer can be aliquotted into 40-45 ml portions (in 50 ml sterile tubes) and kept frozen for up to 2 months. Simply put the tube in a beaker with room temperature water to thaw out the regeneration buffer on the day of the assay. […] (Prior to the start of the assay, the frozen membrane pellets for both RUP3 and CMV (cells transfected with an expression plasmid containing no RUP3 sequences), are suspended in binding buffer, usually 1 ml binding buffer for 1 plate of membranes. The membranes are kept in ice all the time, and a polytron (Brinkmann polytron, model # PT-3100) is used (setting 6-7, for 15-20 seconds) to obtain a homogeneous membrane suspension.) Protein concentration is determined by Bradford protein assay kit using instructions given in the kit, using the standard supplied with the kit as a reference. […]
# HIT-T15 cells [1] = assay: Stimulation of cAMP in HIT-T15 cells; assay type: cell-based, hamster; details: compared with adenyl cyclase activator forskolin
# Description: C. Stimulation of cAMP in HIT-T15 Cells
# HIT-T15 (ATCC CRL#1777) is an immortalized hamster insulin-producing cell line. These cells express RUP3 and therefore can be used to assess the ability of RUP3 ligands to stimulate or inhibit cAMP accumulation via its endogenously expressed receptor. In this assay, cells are grown to 80% confluence and then distributed into a 96-well Flashplate (50,000 cells/well) for detection of cAMP via a “cAMP Flashplate Assay” (NEN, Cat # SMP004). Briefly, cells are placed into anti-cAMP antibody-coated wells that contain either vehicle, the test ligand(s) at a concentration of interest, or 1 uM forskolin. The latter is a direct activator of adenylyl cyclase and serves as a positive control for stimulation of cAMP in HIT-T15 cells. All conditions are tested in triplicate. […] Bound ^125I-cAMP is detected using a Wallac Microbeta Counter. The amount of cAMP in each sample is determined by comparison to a standard curve, obtained by placing known concentrations of cAMP in some wells on the plate.
# (§1) In the first of these, RUP3 agonists are used to stimulate HIT-T15 cells, which express RUP3 at significant levels, as indicated in the Northern blot shown in FIG. 4. […] In this example a RUP3 agonist can be evaluated for its ability to stimulate cAMP production in HIT cells in comparison to the level seen with the adenyl cyclase activator forskolin.
# isolated rat islets = assay: Stimulation of insulin secretion in isolated rat islets; assay type: cell-based; details: 10 μM compound; increased glucose (e.g. 300 mg/dl)
# Description: E. Stimulation of Insulin Secretion in Isolated Rat Islets
# As with HIT-T15 cells, it is known that stimulation of cAMP in isolated rat islets causes an increase in insulin secretion when the glucose concentration in the culture media is changed from 60 mg/dl to 300 mg/dl. RUP3 is an endogenously expressed GPCR in the insulin-producing cells of rat islets. Thus, RUP3 ligands can also be tested for their ability to stimulate GSIS in rat islet cultures. This assay is performed as follows: • A. Select 75-150 islet equivalents (IEQ) for each assay condition using a dissecting microscope. Incubate overnight in low-glucose culture medium (Optional.) • B. Divide the islets evenly into triplicate samples of 25-40 islet equivalents per sample. Transfer to 40 μm mesh sterile cell strainers in wells of a 6-well plate with 5 ml of low (60 mg/dl) glucose Krebs-Ringers Buffer (KRB) assay medium. • C. Incubate 30 minutes (1 hour if overnight step skipped) at 37° C. and 5% CO2. Save the supernatants if a positive control for the RIA is desired. • D. Move strainers with islets to new wells with 5 ml/well low glucose KRB. […] Freeze and store at <−20° C. until insulin concentrations can be determined. • I. Insulin determinations are done as above, or by Linco Labs as a custom service, using their rat insulin RIA (Cat # RI-13K). […]
# HIT-T15 cells [2] = assay: Stimulation of insulin secretion in HIT-T15 cells (GSIS); assay type: cell-based, hamster; details: 15 mM glucose; level comparable to forskolin
# Description: D. Stimulation of Insulin Secretion in HIT-T15 Cells
# It is known that stimulation of cAMP in HIT-T15 cells causes an increase in insulin secretion when the glucose concentration in the culture media is changed from 3 mM to 15 mM. Thus, RUP3 ligands can also be tested for their ability to stimulate glucose-dependent insulin secretion (GSIS) in HIT-T15 cells. In this assay, 30,000 cells/well in a 12-well plate are incubated in culture media containing 3 mM glucose and no serum for 2 hours. The media is then changed; wells receive media containing either 3 mM or 15 mM glucose, and in both cases the media contains either vehicle (DMSO) or RUP3 ligand at a concentration of interest Some wells receive media containing 1 uM forskolin as a positive control. All conditions are tested in triplicate. Cells are incubated for 30 minutes, and the amount of insulin secreted into the media is determined by ELISA, using a kit from either Peninsula Laboratories (Cat # ELIS-7536) or Crystal Chem Inc. (Cat # 90060).
# as §1
SMILES,IC50 (RUP3) [nM],stimulation of cAMP in HIT-T15 cells (HIT-T15 cells [1]),glucose-dependent insulin release in isolated rat islets (isolated rat islets),insulin secretion in HIT cells (HIT-T15 cells [2])
"O=[N+]([O-])c1ccc(Oc2ccc(-n3cncn3)cc2)cc1N1CCC(Sc2ccccn2)CC1 [Compound A52, 2-{1-[2-Nitro-5-(4-[1,2,4]triazol-1-yl-phenoxy)-phenyl]-piperidin-4-ylsulfanyl}-pyridine]",230,–,–,–
"CC(=O)CCc1ccc(Oc2ccc([N+](=O)[O-])c(N3CCC(Sc4ccccn4)CC3)c2)cc1 [Compound A51, 4-(4-{4-Nitro-3-[4-(pyridin-2-ylsulfanyl)-piperidin-1-yl]-phenoxy}-phenyl)-butan-2-one]",346,–,–,–
"CCCC1CCN(c2cc(Oc3ccc(C(=O)CC(=O)OC)cc3)ccc2[N+](=O)[O-])CC1 [Compound A30, 3-{4-[4-Nitro-3-(4-propyl-piperidin-1-yl)-phenoxy]-phenyl}-3-oxo-propionic acid methyl ester]",185,robust stimulator of cAMP,enhance glucose-dependent insulin release,stimulate insulin secretion
